Consider one compound from paper PMC5915154, “Aloe-emodin as drug candidate for cancer therapy” (Oncotarget, 2018).

Broadly, the IC50 is the concentration needed to halve the response being measured. Low values mean greater potency in that assay, high ones weaker potency in that assay.

Assay [1] has as its system CCRF-CEM cells. Nature of the assay: Alkaline comet assay (DNA damage). The assay is classed as cell-based, human. The conditions noted are these: 1-, 2- or 4-fold IC50, 24 h. As for the experimental part: The OxiSelect™ Comet Assay Kit (Cell Biolabs/Biocat, Heidelberg, Germany) was used to detect DNA damage according to the manufacturer’s instructions. CCRF-CEM cells treated with 1-, 2- and 4-fold IC50 of Aloe-emodin for 24 h. Then, the cells were mixed with agarose and applied to OxiSelect™ Comet Assay slides. These slides including the embedded cells were treated with lysis buffer and alkaline solution. Subsequently, electrophoresis was performed on the slide with a voltage of 22 V for 30 min corresponding to 1 V/cm of the electrophoresis chamber. These slides were washed with distilled water. After fixation with 70% ethanol, the slides were stained with by a fluorescent DNA binding dye.
Then, the slides were photographed by a fluorescence microscope (EVOSs FL Cell Image System, Thermo Fisher Scientific Waltham, USA) using a FITC filter with an excitation wavelength of 490 nm and emission at 520 nm. At least 50 cells per image were randomly selected and analyzed with the OpenComet software (http://www.cometbio.org). Percentages of tail DNA, tail moment and olive moment were assessed as parameters for DNA damage. The statistical significance was determined by one-way ANOVA with Tukey’s multiple comparison test.

The subject of assay [2] is drug-resistant sublines. The assay is described as follows: Resazurin reduction assay, range over drug-resistant and/or transfected sublines. It is filed as cell-based. To be noted: Homo sapiens. The text has this: (§1) The cell lines used in the present work, their origins and maintenance conditions were previously reported. In brief, drug-sensitive CCRF-CEM and multidrug resistant P-glycoprotein-over-expressing CEM/ADR5000 leukemia cells, MDA-MB-231-pcDNA3 breast cancer cells and their transfectant subline MDA-MB-231-BCRP clone 23, HCT116 (p53^+/+) colon cancer cells and its knockout clone HCT116 (p53^-/-), U87.MG glioblastoma multiform cells and their transfectant subline U87.MGΔEGFR as well as HEK293 human embryonic kidney cells transfected with or without a cDNA for ABCB5 were used. The human peripheral mononuclear cells (PMNC) were isolated from fresh blood samples of a healthy donor by using Histopaque® (Sigma-Aldrich, Taufkirchen, Germany).
(§2) Resazurin reduction assay was conducted to test the cytotoxicity of the compounds. This assay is based on the reduction of resazurin to resorufin by viable cells. […] Briefly, aliquots of 0.5×10^4 adherent cells which were allowed to attach overnight and 1×10^4 suspension cells per well were seeded in 96-well-plates with or without the addition of varying concentrations of the test substance to get a total volume of 200 μL/well. After 72 h incubation and addition of resazurin (Sigma-Aldrich) for 4 h, staining was measured by an Infinite M2000 ProTM plate reader (Tecan, Germany) using an excitation wavelength of 544 nm and an emission wavelength of 590 nm. […]
On the technique in general: Resazurin is reduced to fluorescent resorufin, in cell work by metabolically active cells.

For assay [3], the system named is HCT116 (p53-/-) knockout colon cancer cells. Nature of the assay: Resazurin reduction assay, HCT116 (p53-/-). The assay is classed as cell-based, human.
Text: as §1, §2

In assay [4] the test system is CCRF-CEM cells. Nature of the assay: Annexin V/PI detection of apoptosis and necrosis. It is filed as cell-based, human. From the text: A commercial annexin V/PI detection apoptosis kit was used to detect early apoptosis and necrosis according to the manufacturer’s instructions (Life Technologies, Carlsbad, CA, USA). Annexin V is a calcium-dependent phospholipid-binding protein, which binds to phosphatidylserine (PS). PS is predominantly located at the inner side of the plasma membrane under normal conditions and moves to outer surface of the membrane upon the onset of early apoptosis. This can be detected FITC-labeled annexin V. PI is a marker of late apoptosis and necrosis. We treated aliquots of 1×10^6 CCRF-CEM cells with 0.5-, 1-, 2- and 4-fold IC50 of Aloe-emodin for 48, 72 or 96 h, respectively. After washing the cells with PBS, they were stained with annexin V/FITC at room temperature for 10-15 min. Subsequently, cells were washed again and stained with PI in the dark. Then, the results were analyzed by a BD Accuri™ C6 flow cytometer at excitation wavelength 488 nm and emission wavelength 530 nm to record annexin V/FITC signals. The fluorescence of PI was detected at 488 nm excitation and was measured by a 610/20 nm band pass filter. At least three independent experiments were performed..

Assay [5] relates to HEK293-ABCB5 cells. Nature of the assay: Resazurin reduction assay, HEK293-ABCB5. It is filed as cell-based. The conditions noted are these: Homo sapiens, 72 h.
Text: as §1, §2

The test system of assay [6] is multidrug-resistant P-glycoprotein-overexpressing CEM/ADR5000 leukemia cells. The assay is described as follows: Resazurin reduction assay, CEM/ADR5000. To be noted: Homo sapiens; CEM/ADR5000, resazurin assay, 72 h. The assay is classed as cell-based, human.
Text: as §1
Resazurin reduction assay was conducted to test the cytotoxicity of the compounds. This assay is based on the reduction of resazurin to resorufin by viable cells. […] Briefly, aliquots of 0.5×10^4 adherent cells which were allowed to attach overnight and 1×10^4 suspension cells per well were seeded in 96-well-plates with or without the addition of varying concentrations of the test substance to get a total volume of 200 μL/well. After 72 h incubation and addition of resazurin (Sigma-Aldrich) for 4 h, staining was measured by an Infinite M2000 ProTM plate reader (Tecan, Germany) using an excitation wavelength of 544 nm and an emission wavelength of 590 nm. Each assay was independently performed for at least three times, with six parallel replicates each. The protocol has been recently reported. Fifty percent inhibition concentrations (IC50) represent the drug concentrations required to inhibit 50% of cell proliferation, which were fitted with nonlinear regression using GraphPad® Prism7.

Assay [7] deals with CCRF-CEM cells. The assay is described as follows: Cell cycle analysis (PI, flow cytometry). It is filed as cell-based, human. The conditions noted are these: 4-fold IC50, 24 h. As for the experimental part:
The cells were collected, washed in PBS and fixed with ice-cold 96% ethanol. After washing the cells with PBS again, the cells were dissolved in PBS and stained with propidium iodide (PI, Sigma-Aldrich) at a final concentration of 50 μg/mL for 15 min in the dark. Cell cycle analyses were performed using a BD Accuri™ C6 Flow cytometer (Becton-Dickinson, Heidelberg, Germany) at 488 nm excitation wavelength, and emission was measured by a 610/20 nm band pass filter. All experiments were performed at least in triplicates. The protocol has been recently reported by us.
A general note: Flow cytometry measures light scatter and fluorescence of single cells or particles in a stream.

For assay [8], the system named is MDA-MB-231-BCRP clone 23 cells. The assay is described as follows: Resazurin reduction assay, MDA-MB-231-BCRP clone 23. It is filed as cell-based. To be noted: Homo sapiens; MDA-MB-231-BCRP clone 23, resazurin assay, 72 h.
Text: as §1, §2

`O=C1c2cccc(O)c2C(=O)c2c(O)cc(CO)cc21` [Aloe-emodin]: the “DNA damage (comet tails, tail DNA %, tail and olive tail moment)” value in assay [1] was “induced DNA damage in a dose-dependent manner”. Also, the half-maximal inhibitory concentration (IC50) in assay [2] is 11.2 to 33.8 µM; in assay [3] (Homo sapiens, HCT-116, HCT116(p53-/-), resazurin assay, 72 h), 11.2 µM; in assay [5] it was 25.9 µM; in assay [6], 12.8 µM; in assay [8], 26.9 µM. The “degree of resistance (collateral sensitivity)” value in assay [3] (HCT116 (p53-/-) knockout cells vs HCT116 (p53+/+)) came out at 0.68 fold. Further, the “apoptotic or necrotic cell death” value in assay [4] (2- or 4-fold IC50, 96 h) was “early and late apoptosis as well as early and late necrosis”; in assay [4] (4-fold IC50, 72 h), “early and late apoptosis as well as early and late necrosis”. Besides, the cell cycle arrest result in assay [7] is reported as “clear arrest in the S-phase”.
